Laboratory results from the NIST ThermoML archive (doi:10.1021/je9006713).
Where “and” joins values, the source holds several entries; their conditions need not be identical. Equal values may be shown once.

Assay: mn = molality of the nth substance listed, in mol/kg
Settings: Liquid, glass piezometer

[I-].[NH4+] [ammonium iodide] + N
mass density
Settings	m1 = 0.867	m1 = 1.827	m1 = 3.103	m1 = 4.856	m1 = 7.271	m1 = 11.18	m1 = 16.46
303.15 K, 10000 kPa	698.2 kg/m3	777.3 kg/m3	870.7 kg/m3	988.2 kg/m3	1109 kg/m3	1234 kg/m3	1329.5 kg/m3
303.15 K, 15000 kPa	702.3 kg/m3	780.7 kg/m3	874.3 kg/m3	992.3 kg/m3	1112.4 kg/m3	1236.7 kg/m3	1332.2 kg/m3
303.15 K, 20000 kPa	706.3 kg/m3	783.9 kg/m3	877.8 kg/m3	996.2 kg/m3	1115.2 kg/m3	1238.9 kg/m3	1334.5 kg/m3
303.15 K, 25000 kPa	710.1 kg/m3	787.4 kg/m3	881.1 kg/m3	999.8 kg/m3	1118 kg/m3	1241.2 kg/m3	1336.8 kg/m3
303.15 K, 30000 kPa	713.7 kg/m3	791 kg/m3	884.5 kg/m3	1003.5 kg/m3	1120.4 kg/m3	1243.5 kg/m3	–
313.15 K, 10000 kPa	683.7 kg/m3	762.9 kg/m3	857.4 kg/m3	974.7 kg/m3	1097.5 kg/m3	1222.9 kg/m3	1322 kg/m3
313.15 K, 15000 kPa	688 kg/m3	766.9 kg/m3	861.1 kg/m3	978.5 kg/m3	1100.9 kg/m3	1225.9 kg/m3	1323.9 kg/m3
313.15 K, 20000 kPa	691.9 kg/m3	770.7 kg/m3	864.6 kg/m3	982.3 kg/m3	1103.9 kg/m3	1228.8 kg/m3	1326.5 kg/m3
313.15 K, 25000 kPa	695.7 kg/m3	774.7 kg/m3	867.8 kg/m3	986.1 kg/m3	1107.3 kg/m3	1231.4 kg/m3	1329.2 kg/m3
313.15 K, 30000 kPa	699.6 kg/m3	778.6 kg/m3	871.3 kg/m3	989.9 kg/m3	1110.4 kg/m3	1233.7 kg/m3	1338.7 kg/m3 and 1331.4 kg/m3
323.15 K, 10000 kPa	668.4 kg/m3	748.7 kg/m3	844.3 kg/m3	960.5 kg/m3	1085.9 kg/m3	1212.3 kg/m3	1312 kg/m3
323.15 K, 15000 kPa	672.8 kg/m3	752.7 kg/m3	848.1 kg/m3	964.8 kg/m3	1089.2 kg/m3	1214.9 kg/m3	1314.6 kg/m3
323.15 K, 20000 kPa	677 kg/m3	756.8 kg/m3	852 kg/m3	969 kg/m3	1092.5 kg/m3	1217 kg/m3	1316.8 kg/m3
323.15 K, 25000 kPa	681.3 kg/m3	760.7 kg/m3	855.9 kg/m3	973.3 kg/m3	1095.5 kg/m3	1219.2 kg/m3	1319.4 kg/m3
323.15 K, 30000 kPa	685.5 kg/m3	764.7 kg/m3	859.8 kg/m3	977.3 kg/m3	1098.5 kg/m3	1221.4 kg/m3	1321.6 kg/m3
333.15 K, 10000 kPa	650.5 kg/m3	732.5 kg/m3	829.3 kg/m3	947.6 kg/m3	1075.9 kg/m3	1199.8 kg/m3	1302.5 kg/m3
333.15 K, 15000 kPa	655.7 kg/m3	737 kg/m3	833.5 kg/m3	951.7 kg/m3	1078.8 kg/m3	1202.6 kg/m3	1305 kg/m3
333.15 K, 20000 kPa	660.8 kg/m3	741.3 kg/m3	837.7 kg/m3	955.5 kg/m3	1081.7 kg/m3	1205.5 kg/m3	1307.6 kg/m3
333.15 K, 25000 kPa	666 kg/m3	745.9 kg/m3	841.8 kg/m3	959.4 kg/m3	1084.6 kg/m3	1208 kg/m3	1310.2 kg/m3
333.15 K, 30000 kPa	671.3 kg/m3	749.9 kg/m3	845.6 kg/m3	963.1 kg/m3	1087.3 kg/m3	1210.2 kg/m3	1312.4 kg/m3
